Assay results as given in patent US20250057793A1, “BENZOIC ACID SALTS FOR TREATMENT OF NERVOUS SYSTEM INJURIES AND DISORDERS” (The United States Government as represented by the …, priority 2021, published 2025).
Entries after “also recorded” stand apart in the source; their conditions may differ.

Columns and labels:
TBI mice [1] = experiment: Barnes maze test in TBI mice; format: in vivo, mouse; conditions: 50 mg/kg/day oral; for Barnes maze latency (time taken to find the target hole) / Barnes maze number of errors: 21 days post-injury
Procedure: The Barnes maze test was performed as described in our earlier studies. Briefly, the mice were initially trained for 2 consecutive days followed by examination on day 3. After each training session, maze and escape tunnel were thoroughly cleaned with a mild detergent to avoid instinctive odor avoidance due to mouse's odor from the familiar object. On day 3, a video camera (Basler Gen I Cam—Basler acA 1300-60) connected to a Noldus computer system was placed above the maze and was illuminated with high voltage light that generated enough light and heat to motivate animals to enter into the escape tunnel. The performance was monitored by the video tracking system (Noldus System). Cognitive behavior parameters were examined by measuring latency (duration before all four paws were on the floor of the escape box) and errors (incorrect response before all four paws were on the floor of the escape box).

TBI mice [2] = experiment: T-maze in TBI mice; format: in vivo, mouse; conditions: 21 days post-injury, 50 mg/kg/day oral
Procedure: Mice were initially habituated in the T-maze for 2 days under food-deprived conditions. Food reward was provided for at least 5 times over a 10 mins period of training. T-maze was cleaned with mild detergent solution between each testing session, so as to minimize the animal's ability to use any olfactory clues. The food-reward side was always associated with a visual cue. Each time the animal consumed food-reward and it was considered as a positive turn.

CCI-injured mice [3] = experiment: Tail suspension test (depression-like behavior) in CCI-injured mice; format: in vivo, mouse; conditions: 50 mg/kg/day oral
Procedure: Mice were subjected to the tail suspension test using a methodology as described in earlier studies. The mice were gently hung upside down by the tail using the non-toxic adhesive tape 50 cm above the floor for 6 mins. Immobility time was defined as the period of time during which the mice only hung passively, without any active movements. An increased immobility time is defined as a depression-like behavior.

CCI-induced TBI mice [4] = experiment: Lesion volume in CCI-induced mice (Cavalieri stereology); format: in vivo, mouse; conditions: for total lesion volume / size of lesion cavity: 21 days post-injury
Procedure: FIG. 5C is a plot showing lesion size in the experimental conditions. Lesion size was quantitatively measured in control mice, untreated CCI injured mice, NaB treated CCI-mice and NaFO-treated CCI-mice at 21 days post-injury. Statistical analyses were performed with Student's t-test in the injured side of the brain [^ap<0.001 (5.623×10^−7) vs control; ^bp<0.001 (=0.001) vs CCI injury].
FIGS. 10A-10C. Decrease in lesion volume in TBI mice by GTB treatment. […] FIG. 10A. […] FIG. 10C. Lesion volume was quantified in all groups of mice. Statistical analyses were performed with two way ANOVA and expressed as mean±SD to compare the lesion volume between unlesioned and lesioned side of the brain.
The estimation of lesion volume was performed based on the Cavalieri method of unbiased stereology using the StereoInvestigator software (MicroBright Biosciences, USA). Both the ipsilateral and contralateral hemisphere of brain volumes were determined using the Cavalieri estimator with a 1 mm grid spacing 1 mm. Every fourth section was analyzed beginning from a random start point. Lesion volume was estimated by subtracting the volume of the ipsilateral hemisphere from that of the contralateral hemi-sphere. Then the volume of lesion cavity estimated in brain section of untreated mice was compared with lesion volume of brain sections of drug treated mice.

CCI-injured mice [5] = experiment: Grid runway in CCI-injured mice; format: in vivo, mouse; conditions: for gait movement on grid runway (steps, time taken, foot misplacement): 7 day post-injury
Source text: The grid runway (65 cm length×8 cm breadth×1 cm intervals) made of parallel grid bars with interbar intervals of 1 cm apart and grid were kept above the surface on a table during the testing session. The soft padding was positioned under the grid run-way in the event for protection to avoid serious injury, if the animal falls from the grid. Each mouse was allowed to walk freely on grid and the time taken and number of steps to cross the runway was noted. Each successful foot placement on grid was recorded as a step. However, an error was considered whenever the paw slips through the grid or the paw misses a bar and extends downwards through the plane of bars. The locomotor behavior of animal on grid was evaluated by an observer blinded to the treatment on 7th and 21st day after CCI injury.

CCI-induced TBI mice [6] = experiment: Glial activation and iNOS in brain of CCI-induced TBI mice (immunofluorescence, Western blot); conditions: for activation of astrocytes / astroglial inflammation in vivo / microglial activation in vivo / iNOS / iNOS-positive cells / GFAP-positive astrocytes / Iba1-positive microglia: cortex and hippocampus; for activation of astrocytes / astroglial inflammation in vivo / microglial activation in vivo: 7 days of treatment, 50 mg/kg/day oral; for iNOS / iNOS-positive cells / level of iNOS protein / expression of iNOS (Western blot) / protein level of GFAP (Western blot) / protein level of Iba1 (Western blot): day 7, 50 mg/kg/day oral; for GFAP-positive astrocytes / Iba1-positive microglia: day 7 post-injury, 50 mg/kg/day oral from 24 h after CCI; for level of iNOS protein / expression of iNOS (Western blot) / protein level of GFAP (Western blot) / protein level of Iba1 (Western blot): hippocampus
CCI-injured mice [7] = experiment: Rotarod test in CCI-injured mice; format: in vivo, mouse; conditions: 50 mg/kg/day oral
Procedure: The forehindlimb motor coordination and balance in animals was observed using the rotarod test as described in earlier studies. Briefly, each mouse was placed on the confined section of the rod and trial was initiated with a smooth increase in speed from 4 rpm to 40 rpm for 5 mins. […] The latency to fall was measured in seconds and used for the analysis. Following the CCI injury, each mouse performed the task three trials during the testing sessions and the average score on these three trials was used as the individual rotarod score. Each trial on the rod was terminated when the mice fell off the rod or held on to the rod by hanging and completed improper revolutions.

[8] = test system: mice with TBI induced by CCI; experiment: Open field behavior in TBI mice; format: in vivo, mouse; conditions: 50 mg/kg/day oral; for overall movements / all open-field parameters (heat map, distance, velocity, center frequency, rearing): 21 day post-injury
Procedure: The performance of animals in open field test was analyzed as described in earlier studies. Briefly, each animal was allowed to move freely to explore an open field arena designed with a square shaped wooden floor measuring 40×40 cm, with walls 30 cm high for 5 min. A […] (Basler Gen I Cam—Basler acA 1300-60) connected to a Noldus computer system was fixed in top facing-down on the open field arena. Each mouse was placed individually on center of the arena and the performance was monitored by the live video tracking system. The central area was arbitrarily defined as a square of 20×20 cm ([…]).

CCI-injured mice [9] = experiment: Beam runway / beam walking in CCI-injured mice; format: in vivo, mouse; conditions: for gait movement on beam runway (steps, time taken, foot slips): 7 day post-injury
Source text: The beam runway was made of smooth wooden material and measured 65 cm length×0.7 cm breadth×4 cm height. A black box with an opening was fixed at one end and an aversive stimulus (bright lamp) at the other end of beam. This test was used to evaluate the complex coordination and balance of mice while traversing the beam and we performed the procedure as described in earlier studies. The mouse was placed on the beam near the light source and the light was turned ‘on’. This makes the animal move into the box to avoid the aversive stimulus, which was then turned off. Six repetitions were performed with a 2 mins resting period inside the box. The parameters measured were the time taken (sec) to reach the box and the number of steps with contralateral limb drag/slips. An error was considered whenever the paw slipping on the beam and the number of slips were counted. The beam walk analysis was performed by an observer blinded to the treatment at 7th and 21st postoperative day.

[10] = 21st day of CCI injury, 50 mg/kg/day oral gavage
[11] = 50 mg/kg/day oral, 50 mg/kg/day
[12] = 21 days post-injury, 50 mg/kg/day oral
[13] = 7 day post-injury, 50 mg/kg/day

SMILES | Barnes maze latency (time taken to find the target hole) (TBI mice [1]) | Barnes maze number of errors (TBI mice [1]) | T-maze number of negative turns (TBI mice [2]) | T-maze number of positive turns (TBI mice [2]) | immobility time in tail suspension test (CCI-injured mice [3]; 21 days post-injury) | activation of astrocytes / astroglial inflammation in vivo (CCI-induced TBI mice [6]) | microglial activation in vivo (CCI-induced TBI mice [6]) | iNOS / iNOS-positive cells (CCI-induced TBI mice [6]) | GFAP-positive astrocytes (CCI-induced TBI mice [6]) | Iba1-positive microglia (CCI-induced TBI mice [6]) | level of iNOS protein / expression of iNOS (Western blot) (CCI-induced TBI mice [6]) | protein level of GFAP (Western blot) (CCI-induced TBI mice [6]) | protein level of Iba1 (Western blot) (CCI-induced TBI mice [6]) | overall movements / all open-field parameters (heat map, distance, velocity, center frequency, rearing) [8] | further results
O=C(OCC(COC(=O)c1ccccc1)OC(=O)c1ccccc1)c1ccccc1 [GTB, Glyceryl Tribenzoate] | less time | less errors | lower number of negative turns | higher number of positive turns | significantly less immobility time | inhibits | decreases | decreased | decrease | reduced | decreased | decrease | reduced | no significant change | immobility time in tail suspension test (CCI-injured mice [3]; 7 days post-injury): significantly less immobility time; total lesion volume / size of lesion cavity (CCI-induced TBI mice [4]; H&E-stained sections, 50 mg/kg/day oral gavage): decrease; grid runway, number of steps (CCI-injured mice [5]; [10]): no significant change; gait movement on grid runway (steps, time taken, foot misplacement) (CCI-injured mice [5]; 50 mg/kg/day oral): improved; latency to fall on rotarod (CCI-injured mice [7]; 7 day post-injury): increase in latency; general locomotor activity / open-field behavior ([8]; 7 day post-injury): significant increase; beam walking, number of steps (CCI-injured mice [9]; [10]): no significant change; beam walking, time taken (CCI-injured mice [9]; [10]): no significant change; gait movement on beam runway (steps, time taken, foot slips) (CCI-injured mice [9]; 50 mg/kg/day oral): improved
O=C([O-])c1ccccc1.[Na+] [NaB, Sodium benzoate] | less latency | fewer errors | lower number of negative turns | higher number of positive turns | significant improvement | attenuates | inhibits | inhibition of iNOS | decrease | decrease | decreases | Decrease and/or normalization | Decrease and/or normalization | significant differences in overall movements were not observed | hippocampus-dependent behaviors / cognitive performance (TBI mice [1]; NOR, Barnes maze and T maze, 21 days): enhanced cognitive performance; immobility time in tail suspension test (CCI-injured mice [3]; 7 days post-injury, 50 mg/kg/day): significantly less immobility time; also recorded: significant improvement; total lesion volume / size of lesion cavity (CCI-induced TBI mice [4]; cresyl violet sections, 50 mg/kg/day oral): significantly reduced; structural-tissue integrity of damaged hippocampus (CCI-induced TBI mice [4]; oral treatment started 24 h after CCI): restored; gait movement on grid runway (steps, time taken, foot misplacement) (CCI-injured mice [5]; [11]): significant improvement; also recorded: significant upgrade; also recorded: improvements; grid runway performance (CCI-injured mice [5]; [12]): did not display significant protection; latency to fall on rotarod (CCI-injured mice [7]; [13]): prolonged latencies; also recorded: significantly improved; latency to fall on rotarod (CCI-injured mice [7]; 21 day post-injury, 50 mg/kg/day): prolonged latencies; also recorded: significantly improved; general locomotor activity / open-field behavior [8, 13]: significant improvement; also recorded: improves; center frequency ([8]; open field, 7 day post-injury): Functional upgrading was clearly visible; distance traveled ([8]; open field, 7 day post-injury): Functional upgrading was clearly visible; rearing behavior ([8]; open field, 7 day post-injury): Functional upgrading was clearly visible; velocity ([8]; open field, 7 day post-injury): Functional upgrading was clearly visible; gait movement on beam runway (steps, time taken, foot slips) (CCI-injured mice [9]; [11]): significant improvement; also recorded: significant upgrade; also recorded: improved; beam walking performance (CCI-injured mice [9]; [12]): did not display significant protection
